Experimental data: patent US7759345B2, “Antitumoral derivatives of ET-743” (priority 2001, dated 2010)
Where two headings read alike, the source gives them in different places.

How the values were obtained:
DU-145 = assay: Inhibition of cell growth by counting cells, DU-145; format: cell-based, human; conditions: Homo sapiens, DU-145, 72 h, read-out: IC50 (molar) DU-145
Description: 1°.—Inhibition of Cell Growth by Counting Cells.
This form of the assay employs 24 well multidishes of 16 mm diameter (Bergeron, 1984; Schroeder, 1981). The tumor cell lines employed are: P-388 (ATCC CCL 46), suspension culture of a lymphoid neoplasm from a DBA/2 mouse; A-549 (ATCC CCL 185), monolayer culture of a human lung carcinoma; HT-29 (ATCC HTB-38), monolayer culture of a human colon carcinoma; MEL-28 (ATCC HTB-72), monolayer culture of a human melanoma and DU-145 (ATCC HTB-81), monolayer culture of a human prostate carcinoma.
Cells were maintained, in logarithmic phase of growth in Eagle's Minimum Essential Medium, with Earle's Balanced Salts, with non-essential amino acids, with 2.0 mM L-Glutamine, without sodium bicarbonate (EMEM/neaa), supplemented with 10% Fetal Calf Serum (FCS), 10^−2 M. sodium bicarbonate and 0.1 U/l penicillin G+0.1 g/l streptomycin sulfate. For the experiments, cells are harvested from subconfluent cultures using trypsin and resuspended in fresh medium before plating.
A-549, HT-29, MEL-28 and DU-145 cells were seeded into 16 mm diameter wells at 1×10^4 cells per well in 1 ml aliquots of EMEM 5% FCS containing different concentrations of the sample to be tested. A separate set of cultures without drug was seeded as control of growth, to ensure that cells remained in exponential phase of growth. All determinations are carrying out in duplicate. After three days of incubation at 37° C., 5% CO2 in a 98% humid atmosphere cells were stained with 0.1% crystal violet. An approximately IC50 was determined by comparing the growth in wells with drug to the growth in wells control.
For quantifying the activity, after the incubation time, cells are trypsinized and counted in a Coulter Counter ZM. All counts (net cells per well), represent the average of duplicate wells. % G, percent of growth relative to cultures without drug. The results of these assays are used to generate dose-response curves from which more precise IC50 values are determined (sample concentration which produces 50% cell growth inhibition).
Obtained results may predict the usefulness of a certain drug as a potential cancer treatment. For this technique, compounds which show IC50 values smaller than 1 μg/ml are selected to continue with further studies. IC50's data allow to predict that not only could a drug be cystostatic, but also it could have a potential in terms of tumor reduction.

MEL-28 = assay: Inhibition of cell growth by counting cells, MEL-28; format: cell-based, human; conditions: Homo sapiens, SK-MEL-28, 72 h, read-out: IC50 (molar) MEL-28
In short: (§1)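 Monolayer lines were plated at 1×10^4 cells per well with compound in medium containing 5% FCS. After a 3-day incubation at 37° C, crystal violet staining gave an approximate IC50, and cell counting of duplicate wells gave the dose-response IC50.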

A-549 = assay: Inhibition of cell growth by counting cells, A-549; format: cell-based, human; conditions: Homo sapiens, A549, 72 h, read-out: IC50 (molar) A-549
In short: as §1

P-388 = assay: Inhibition of cell growth by counting cells, P-388; format: cell-based, mouse; conditions: Mus musculus, P388, 72 h, read-out: IC50 (molar) P-388
In short: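 Mouse P-388 lymphoid neoplasm suspension cells seeded at 1×10^4 cells/well in EMEM 5% FCS containing graded sample concentrations, in duplicate alongside drug-free growth controls. Cells counted by Coulter counter; % growth vs untreated gives dose-response curves, IC50 = concentration producing 50% growth inhibition.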

HT-29 = assay: Inhibition of cell growth by counting cells, HT-29; format: cell-based, human; conditions: Homo sapiens, HT-29, 72 h, read-out: IC50 (molar) HT-29
In short: as §1

SMILES	IC50 (DU-145; three days of incubation)	IC50 (MEL-28; three days of incubation)	IC50 (A-549; three days of incubation)	IC50 (P-388; three days of incubation)	IC50 (HT-29; three days of incubation)	IC50 (DU-145)	IC50 (MEL-28)	IC50 (A-549)	IC50 (P-388)	IC50 (HT-29)
COc1cc2c(cc1OCc1ccccc1)CCN[C@]21CS[C@@H]2c3c(OC(C)=O)c(C)c4c(c3[C@H](COC1=O)N1C2[C@H]2c3c(cc(C)c(OC)c3O)C[C@@H]([C@@H]1O)N2C)OCO4 (stereo partly shown) [Compound 71]	0.588 nM	0.588 nM	0.588 nM	0.588 nM	0.588 nM					
CCCCCCCCCCCCCCCC(=O)Oc1cc2c(cc1OC)[C@@]1(CS[C@@H]3c4c(OC(C)=O)c(C)c5c(c4[C@H](COC1=O)N1C3[C@H]3c4c(cc(C)c(OC)c4OC(=O)CCCCCCCCCCCCCCC)C[C@@H]([C@@H]1O)N3C)OCO5)NCC2 (stereo partly shown) [Compound 83]	80.8 nM	80.8 nM	80.8 nM	80.8 nM	80.8 nM					
CCOc1cc2c(cc1OC)[C@@]1(CS[C@@H]3c4c(OC(C)=O)c(C)c5c(c4[C@H](COC1=O)N1C3[C@H]3c4c(cc(C)c(OC)c4OCC)C[C@@H]([C@@H]1O)N3C)OCO5)NCC2 (stereo partly shown) [Compound 88]	12.2 nM	12.2 nM	12.2 nM	12.2 nM	12.2 nM					
CCCOc1cc2c(cc1OC)[C@@]1(CS[C@@H]3c4c(OC(C)=O)c(C)c5c(c4[C@H](COC1=O)N1C3[C@H]3c4c(cc(C)c(OC)c4OCCC)C[C@@H]([C@@H]1O)N3C)OCO5)NCC2 (stereo partly shown) [Compound 89]	591 nM	591 nM	591 nM	591 nM	591 nM					
C=CCOc1cc2c(cc1OC)[C@@]1(CS[C@@H]3c4c(OC(C)=O)c(C)c5c(c4[C@H](COC1=O)N1C3[C@H]3c4c(cc(C)c(OC)c4OCC=C)C[C@@H]([C@@H]1O)N3C)OCO5)NCC2 (stereo partly shown) [Compound 90]	11.9 nM	11.9 nM	11.9 nM	11.9 nM	11.9 nM					
COc1cc2c(cc1OCc1ccccc1)CCN[C@]21CS[C@@H]2c3c(OC(C)=O)c(C)c4c(c3[C@H](COC1=O)N1C2[C@H]2c3c(cc(C)c(OC)c3OCc3ccccc3)C[C@@H]([C@@H]1O)N2C)OCO4 (stereo partly shown) [Compound 91]	106 nM	106 nM	106 nM	106 nM	106 nM					
COc1cc2c(cc1OC(=O)OC(C)(C)C)CCN[C@]21CS[C@@H]2c3c(O)c(C)c4c(c3[C@H](COC1=O)N1C2[C@H]2c3c(cc(C)c(OC)c3O)C[C@@H]([C@@H]1C#N)N2C)OCO4 (stereo partly shown) [Compound 106]	1.21 nM	1.21 nM	1.21 nM	1.21 nM	1.21 nM					
COc1cc2c(cc1OC(=O)OC(C)(C)C)CCN[C@]21CS[C@@H]2c3c(OC(=O)C(F)(F)F)c(C)c4c(c3[C@H](COC1=O)N1C2[C@H]2c3c(cc(C)c(OC)c3O)C[C@@H]([C@@H]1C#N)N2C)OCO4 (stereo partly shown) [Compound 107]	1.08 nM	1.08 nM	1.08 nM	1.08 nM	1.08 nM					
CCCC(=O)Oc1c(C)c2c(c3c1[C@H]1SC[C@]4(NCCc5cc(OC(=O)OC(C)(C)C)c(OC)cc54)C(=O)OC[C@@H]3N3C1[C@H]1c4c(cc(C)c(OC)c4O)C[C@@H]([C@@H]3C#N)N1C)OCO2 (stereo partly shown) [Compound 111]		1.11 nM	1.11 nM	1.11 nM	1.11 nM	1.11 nM				
COc1cc2c(cc1OC(=O)OC(C)(C)C)CCN[C@]21CS[C@@H]2c3c(OC(=O)/C=C/c4ccccc4)c(C)c4c(c3[C@H](COC1=O)N1C2[C@H]2c3c(cc(C)c(OC)c3O)C[C@@H]([C@@H]1C#N)N2C)OCO4 (stereo partly shown) [Compound 113]	10.4 nM	10.4 nM	10.4 nM	10.4 nM	10.4 nM					
CCCCCCCC(=O)Oc1c(C)c2c(c3c1[C@H]1SC[C@]4(NCCc5cc(OC(=O)OC(C)(C)C)c(OC)cc54)C(=O)OC[C@@H]3N3C1[C@H]1c4c(cc(C)c(OC)c4O)C[C@@H]([C@@H]3C#N)N1C)OCO2 (stereo partly shown) [Compound 119]	10.5 nM	10.5 nM	10.5 nM	10.5 nM	10.5 nM					
CCCCCCCC(=O)Oc1c(C)c2c(c3c1[C@H]1SC[C@]4(NCCc5cc(OC(=O)OC(C)(C)C)c(OC)cc54)C(=O)OC[C@@H]3N3C1[C@H]1c4c(cc(C)c(OC)c4OC(=O)CCCCCCC)C[C@@H]([C@@H]3C#N)N1C)OCO2 (stereo partly shown) [Compound 120]	463 nM	463 nM	463 nM	463 nM	463 nM					
CCCCCCCCCCCCCCCC(=O)Oc1c(C)c2c(c3c1[C@H]1SC[C@]4(NCCc5cc(OC(=O)OC(C)(C)C)c(OC)cc54)C(=O)OC[C@@H]3N3C1[C@H]1c4c(cc(C)c(OC)c4O)C[C@@H]([C@@H]3C#N)N1C)OCO2 (stereo partly shown) [Compound 121]	469 nM	469 nM	469 nM	469 nM	469 nM					
CCCCCCCCCCCCCCCC(=O)Oc1c(C)c2c(c3c1[C@H]1SC[C@]4(NCCc5cc(OC(=O)OC(C)(C)C)c(OC)cc54)C(=O)OC[C@@H]3N3C1[C@H]1c4c(cc(C)c(OC)c4OC(=O)CCCCCCCCCCCCCCC)C[C@@H]([C@@H]3C#N)N1C)OCO2 (stereo partly shown) [Compound 122]	830 nM	830 nM	830 nM	830 nM	830 nM					
COc1cc2c(cc1OC(=O)OC(C)(C)C)CCN[C@]21CS[C@@H]2c3c(OCc4ccccc4)c(C)c4c(c3[C@H](COC1=O)N1C2[C@H]2c3c(cc(C)c(OC)c3O)C[C@@H]([C@@H]1C#N)N2C)OCO4 (stereo partly shown) [Compound 134]						0.544 nM	0.544 nM	0.544 nM	0.544 nM	0.544 nM
COc1cc2c(cc1OC(=O)OC(C)(C)C)CCN[C@]21CS[C@@H]2c3c(OCc4ccccc4)c(C)c4c(c3[C@H](COC1=O)N1C2[C@H]2c3c(cc(C)c(OC)c3OCc3ccccc3)C[C@@H]([C@@H]1C#N)N2C)OCO4 (stereo partly shown) [Compound 135]						4.96 nM	4.96 nM	4.96 nM	4.96 nM	4.96 nM
COc1cc2c(cc1O)CCN[C@]21CS[C@@H]2c3c(O)c(C)c4c(c3[C@H](COC1=O)N1C2[C@H]2c3c(cc(C)c(OC)c3O)C[C@@H]([C@@H]1C#N)N2C)OCO4 (stereo partly shown) [Compound 136]	0.137 nM	0.137 nM	0.137 nM	0.137 nM	0.137 nM					
COc1cc2c(cc1O)CCN[C@]21CS[C@@H]2c3c(OC(=O)/C=C/c4ccccc4)c(C)c4c(c3[C@H](COC1=O)N1C2[C@H]2c3c(cc(C)c(OC)c3O)C[C@@H]([C@@H]1C#N)N2C)OCO4 (stereo partly shown) [Compound 137]	0.117 nM	0.117 nM	0.117 nM	0.117 nM	0.117 nM					
CCCCCCCC(=O)Oc1c(C)c2c(c3c1[C@H]1SC[C@]4(NCCc5cc(O)c(OC)cc54)C(=O)OC[C@@H]3N3C1[C@H]1c4c(cc(C)c(OC)c4O)C[C@@H]([C@@H]3C#N)N1C)OCO2 (stereo partly shown) [Compound 144]	1.17 nM	1.17 nM	1.17 nM	1.17 nM	1.17 nM					
CCCCCCCCCCCCCCCC(=O)Oc1c(C)c2c(c3c1[C@H]1SC[C@]4(NCCc5cc(O)c(OC)cc54)C(=O)OC[C@@H]3N3C1[C@H]1c4c(cc(C)c(OC)c4O)C[C@@H]([C@@H]3C#N)N1C)OCO2 (stereo partly shown) [Compound 146]	103 nM	103 nM	103 nM	103 nM	103 nM					
